Data set [1] deals with T1, FLT3 (D835Y) (Homo sapiens, UniProt P36888, D835Y).
T1 construct: purchased Reaction Biology Corp. (Kinase HotSpot service)
T1 sequence (P36888 27-993 D835Y): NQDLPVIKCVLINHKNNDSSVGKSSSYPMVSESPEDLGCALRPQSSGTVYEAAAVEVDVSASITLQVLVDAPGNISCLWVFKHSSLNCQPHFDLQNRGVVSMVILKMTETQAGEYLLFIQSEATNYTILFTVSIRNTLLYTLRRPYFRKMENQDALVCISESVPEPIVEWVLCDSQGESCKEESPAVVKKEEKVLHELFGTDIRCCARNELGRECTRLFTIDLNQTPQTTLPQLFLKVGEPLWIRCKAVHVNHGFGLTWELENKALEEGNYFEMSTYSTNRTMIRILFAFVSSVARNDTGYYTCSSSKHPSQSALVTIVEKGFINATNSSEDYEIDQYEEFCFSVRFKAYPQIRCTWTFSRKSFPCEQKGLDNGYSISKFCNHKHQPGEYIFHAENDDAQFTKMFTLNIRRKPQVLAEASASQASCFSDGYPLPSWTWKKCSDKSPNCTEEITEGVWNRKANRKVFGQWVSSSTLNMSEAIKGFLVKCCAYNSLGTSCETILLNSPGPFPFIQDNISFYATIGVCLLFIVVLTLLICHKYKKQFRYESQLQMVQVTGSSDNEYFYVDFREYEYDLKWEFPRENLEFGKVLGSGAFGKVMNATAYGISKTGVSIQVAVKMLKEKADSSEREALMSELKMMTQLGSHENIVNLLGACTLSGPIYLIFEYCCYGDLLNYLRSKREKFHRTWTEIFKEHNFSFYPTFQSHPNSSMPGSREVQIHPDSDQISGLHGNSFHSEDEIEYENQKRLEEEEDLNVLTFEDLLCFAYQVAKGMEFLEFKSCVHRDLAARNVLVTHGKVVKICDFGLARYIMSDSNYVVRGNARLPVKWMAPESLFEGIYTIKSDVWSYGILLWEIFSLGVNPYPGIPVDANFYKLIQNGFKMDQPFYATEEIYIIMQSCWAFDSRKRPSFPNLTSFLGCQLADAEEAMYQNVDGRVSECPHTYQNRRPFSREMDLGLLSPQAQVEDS
Put plainly: Reaction Biology Kinase HotSpot radiometric kinase assay. The format is biochemical. The text has this:
(§1) (specific activity approx. 500 cpm/pmol, concentration as required).

The target in data set [2] is T2, FLT3 wild type (Homo sapiens, UniProt P36888).
T2 construct: purchased Reaction Biology Corp. (Kinase HotSpot service)
T2 sequence (P36888 27-993): T1 sequence (P36888 27-993 D835Y) with Y809D
The data set is described as above. The format is biochemical. The following applies: ATP 10 µM; read-out: FLT3 IC50.
Text: as §1

Positions count from the first letter of the chain named. Where “and” joins values, the source holds several entries; their conditions need not be identical. Equal entries are not always repeated.

For `CCN1CCC(Nc2cc(C(=O)Nc3ccc4[nH]c(-c5ccc6cn[nH]c6c5)nc4c3)cc(C(F)(F)F)c2)CC1` [8t, N-(2-(1H-Indazol-6-yl)-1H-benzo[d]imidazol-5-yl)-3-((1-ethylpiperidin-4-yl)amino)-5-(trifluoromethyl)benzamide], the melting point was in the range of 166 to 168 °C. In data set [1], this compound yielded a half-maximal inhibitory concentration (IC50) of 87 nM. Also, the IC50 in data set [2] was determined as 285 nM.
For `COc1ccc(/C=C/C(=O)Nc2ccc3[nH]c(-c4ccc5cn[nH]c5c4)nc3c2)cc1` [8k, (E)-N-(2-(1H-Indazol-6-yl)-1H-benzo[d]imidazol-5-yl)-3–(4-methoxyphenyl)acrylamide], the melting point lay within 206 to 208 °C. In data set [1], this compound yielded an IC50 of 191 nM. Further, the half-maximal inhibitory concentration (IC50) in data set [2] was determined as 761 nM.
`O=C(Nc1ccc2[nH]c(-c3ccc4cn[nH]c4c3)nc2c1)c1ccc(Cl)c(C(F)(F)F)c1` [8i, N-(2-(1H-Indazol-6-yl)-1H-benzo[d]imidazol-5-yl)-4-chloro-3-(trifluoromethyl)benzamide]: the melting point was 215 to 217 °C. Besides, the midpoint of inhibition in data set [1], the IC50, lay at 84 nM. In addition, the 50% inhibitory concentration (IC50) in data set [2] was found to be 676 nM.
`Cc1nccn1-c1cc(C(=O)Nc2ccc3[nH]c(-c4ccc5cn[nH]c5c4)nc3c2)cc(C(F)(F)F)c1` [8c, N-(2-(1H-Indazol-6-yl)-1H-benzo[d]imidazol-5-yl)-3–(2-methyl-1H-imidazol-1-yl)-5-(trifluoromethyl)benzamide] gave a melting point of 251 to 253 °C. Moreover, in data set [1], the concentration for half-maximal inhibition (IC50) amounted to 108 nM. Besides, in data set [2], the half-maximal inhibitory concentration (IC50) was found to be 470 nM.
In the case of `CCN(CC)C1CCN(c2cc(C(=O)Nc3ccc4[nH]c(-c5ccc6cn[nH]c6c5)nc4c3)cc(C(F)(F)F)c2)C1` (stereo not shown) [8o, N-(2-(1H-Indazol-6-yl)-1H-benzo[d]imidazol-5-yl)-3–(3-(diethylamino)pyrrolidin-1-yl)-5-(trifluoromethyl)benzamide], the melting point lay within 221 to 223 °C. In addition, the IC50 in data set [1] was determined as 120 nM. Moreover, the half-maximal inhibitory concentration (IC50) in data set [2] was determined as 841 nM.
In turn, `CN1CCC(Oc2ccc(C(=O)Nc3ccc4[nH]c(-c5ccc6cn[nH]c6c5)nc4c3)cc2C(F)(F)F)CC1` [8x, N-(2-(1H-Indazol-6-yl)-1H-benzo[d]imidazol-5-yl)-4-((1-methylpiperidin-4-yl)oxy)-3-(trifluoromethyl)benzamide] registered a melting point of 293 to 295 °C. In data set [1], this compound had an IC50 of 145 nM. Also, the IC50 in data set [2] amounted to 743 nM.
In the same order, the values of `CN1CCN(c2cc(C(=O)Nc3ccc4[nH]c(-c5ccc6cn[nH]c6c5)nc4c3)cc(C(F)(F)F)c2)CC1` [8a, N-(2-(1H-Indazol-6-yl)-1H-benzo[d]imidazol-5-yl)-3–(4-methylpiperazin-1-yl)-5-(trifluoromethyl)benzamide] are 228 to 230 °C, 21 nM and 181 nM.
In turn, `CN1CCCC(Nc2cc(C(=O)Nc3ccc4[nH]c(-c5ccc6cn[nH]c6c5)nc4c3)cc(C(F)(F)F)c2)C1` (stereo not shown) [8v, N-(2-(1H-Indazol-6-yl)-1H-benzo[d]imidazol-5-yl)-3-((1-methylpiperidin-3-yl)amino)-5-(trifluoromethyl)benzamide] yielded a melting point of 213 to 214 °C. Moreover, the IC50 in data set [1] was 8.86 nM and 9 nM. Further, the “fold more potent against FLT3-D835Y than against wild-type FLT3” value in data set [1] (ratio of IC50 values) is 7- to 12 fold. For the same compound, the half-inhibitory concentration (IC50) in data set [2] stood at 107 nM.
`O=C(Nc1ccc(Cl)c(Cl)c1)Nc1ccc2[nH]c(-c3ccc4cn[nH]c4c3)nc2c1` [8m, 1–(2-(1H-Indazol-6-yl)-1H-benzo[d]imidazol-5-yl)-3–(3,4-dichlorophenyl)urea] showed a melting point of 144 to 146 °C. For the same compound, the IC50 in data set [1] worked out at 1010 nM. The IC50 in data set [2] was 3580 nM.
The compound `CN1CCN(c2ccc(C(=O)Nc3ccc4[nH]c(-c5ccc6cn[nH]c6c5)nc4c3)cc2C(F)(F)F)CC1` [8e, N-(2-(1H-Indazol-6-yl)-1H-benzo[d]imidazol-5-yl)-4–(4-methylpiperazin-1-yl)-3-(trifluoromethyl)benzamide] gave a melting point of 160 to 161 °C. Besides, in data set [1], the midpoint of inhibition, the IC50, lay at 44 nM. Further, the concentration for half-maximal inhibition (IC50) in data set [2] was 154 nM.
On to `O=C(Nc1ccc2[nH]c(-c3ccc4cn[nH]c4c3)nc2c1)c1cc(N2CCOCC2)cc(C(F)(F)F)c1` [8d, N-(2-(1H-Indazol-6-yl)-1H-benzo[d]imidazol-5-yl)-3-morpholino-5-(trifluoromethyl)benzamide], for which the melting point lay in the range of 195 to 196 °C. The same compound gave a concentration for half-maximal inhibition (IC50) in data set [1] of 151 nM. The IC50 in data set [2] amounted to 1030 nM.
Turning to `O=C(Nc1ccc2[nH]c(-c3ccc4cn[nH]c4c3)nc2c1)c1cc(CN2CCN(C3CC3)CC2)cc(C(F)(F)F)c1` [8q, N-(2-(1H-Indazol-6-yl)-1H-benzo[d]imidazol-5-yl)-3-((4-cyclopropylpiperazin-1-yl)methyl)-5-(trifluoromethyl)benzamide], the melting point was 150 to 152 °C. In addition, in data set [1], it took 174 nM to reach half-maximal inhibition (IC50). Besides, the IC50 in data set [2] is 525 nM.
In turn, `Cc1cn(-c2cc(C(=O)Nc3ccc4[nH]c(-c5ccc6cn[nH]c6c5)nc4c3)cc(C(F)(F)F)c2)cn1` [8b, N-(2-(1H-Indazol-6-yl)-1H-benzo[d]imidazol-5-yl)-3–(4-methyl-1H-imidazol-1-yl)-5-(trifluoromethyl)benzamide] returned a melting point of 239 to 241 °C. The compound further gave a half-inhibitory concentration (IC50) in data set [1] of 110 nM. In addition, in data set [2], the half-inhibitory concentration (IC50) was found to be 639 nM.
In turn, `O=C(Nc1ccc2[nH]c(-c3ccc4cn[nH]c4c3)nc2c1)c1cc(N2CCN(C3CC3)CC2)cc(C(F)(F)F)c1` [8p, N-(2-(1H-Indazol-6-yl)-1H-benzo[d]imidazol-5-yl)-3–(4-cyclopropylpiperazin-1-yl)-5-(trifluoromethyl)benzamide] displayed a melting point of 154 to 156 °C. Half-maximal inhibition in data set [1] (IC50) was put at 131 nM. For the same compound, in data set [2], the half-inhibitory concentration (IC50) worked out at 409 nM.
For `O=C(Nc1ccc2[nH]c(-c3ccc4cn[nH]c4c3)nc2c1)c1cnn(-c2ccccc2)c1C(F)(F)F` [8g, N-(2-(1H-Indazol-6-yl)-1H-benzo[d]imidazol-5-yl)-1-phenyl-5-(trifluoromethyl)-1H-pyrazole-4-carboxamide], the melting point lay in the range of 258 to 260 °C. For the same compound, in data set [1], the IC50 amounted to 63 nM. The IC50 in data set [2] was found to be 1100 nM.
In the same order, the values of `CN1CCC(Nc2cc(C(=O)Nc3ccc4[nH]c(-c5ccc6cn[nH]c6c5)nc4c3)cc(C(F)(F)F)c2)CC1` [8s, N-(2-(1H-Indazol-6-yl)-1H-benzo[d]imidazol-5-yl)-3-((1-methylpiperidin-4-yl)amino)-5-(trifluoromethyl)benzamide] are 175 to 177 °C, 25 nM and 158 nM.
The compound `CN1CCC(Oc2cc(C(=O)Nc3ccc4[nH]c(-c5ccc6cn[nH]c6c5)nc4c3)cc(C(F)(F)F)c2)CC1` [8u, N-(2-(1H-Indazol-6-yl)-1H-benzo[d]imidazol-5-yl)-3-((1-methylpiperidin-4-yl)oxy)-5-(trifluoromethyl)benzamide] returned a melting point of 293 to 295 °C. In data set [1], this compound gave an IC50 of 55 nM. Further, the half-maximal inhibitory concentration (IC50) in data set [2] is 289 nM.

Values taken from publication PMC8788362, “Rational design and synthesis of 2-(1H-indazol-6-yl)-1H-benzo[d]imidazole derivatives as inhibitors targeting FMS-like tyrosine kinase 3 (FLT3) and its mutants” (Journal of Enzyme Inhibition and Medicinal Chemistry, 2022).
